Reference: patent US20090005348A1, “Compounds Having Cytokine Modulating Properties” (VITAL HEALTH SCIENCES PTY LTD, priority 2005, published 2009)

How the values were obtained:
[1] = tested on: T cells from old (>22 months) C57BL mice; assay: T cell proliferation ([3H] thymidine, anti-CD3/anti-CD28), old mice; type: cell-based; conditions: all the alpha-T treatments (12.5-100 μM), n=6, p<0.05, FIG. 8
Procedure: T cells from young (4 to 6 months) and old (>22 months) C57BL mice were isolated and purified from splenocytes by negative selection using Pan T cell isolation kit from Miltenyi Biotech.
The tocopherol phosphate mixture (alpha-TP) provided by Phosphagenics Limited was composed of approximately ⅔ mono-tocopheryl phosphate (MW 510.7) and ⅓ di-tocopheryl phosphate (MW 923.3), which makes the MW of the compound 598.0. Ethanol was used to dissolve the solid alpha-TP mixture to make a 107.52 mg/ml stock solution ([…]). 34 mg/ml alpha-tocopherol (alpha-T) in ethanol was used as a stock solution of alpha-T (79.06 mM). The solutions used for pre-incubation and incubation were prepared as follows: […]
After pre-incubation, the cells were stimulated (2×10^5 cells/well) in triplicate in a round bottom 96-well plate with plate-bound anti-CD3 (5 μg/ml, anti-CD3e (145-2C11), Pharmingen Cat# 553058) and soluble anti-CD28 (2 μg/ml, final concentration, anti-CD28 (37.51), Pharmingen Cat# 553294) in RPMI medium containing 5% FBS (final concentration and same concentration of vehicle, alpha-tocopherol or alpha-tocopherol phosphate used in the pre-incubation. The cells were incubated at 35° C., 5% CO2 for 64 hours, then, pulsed with 0.5 μCi of [^3H] thymidine for 8 hours. The cells were harvested onto filter paper and proliferation was quantified as the amount of [^3H] […]

[2] = tested on: PAI-1; assay: PAI-1 activity in the plasma of hypercholesterolemic rabbits; type: in vivo, New Zealand albino rabbits; conditions: TA at 300 mg/kg feed, 2% cholesterol diet, 4 weeks
Source text: (§1) 47 female New Zealand albino rabbits were obtained at 4-8 weeks of age. They were divided into 7 treatment groups, which consisted of 5-10 animals per group. All the animals were placed on a vitamin E stripped diet, and all the diets contained 2% cholesterol except for the control group (which contained no cholesterol) for 4 weeks (containing the various TA or TPm treatments outlined below). [table] At the end of the treatment period the animals were sacrificed and the blood collected. The plasma was obtained from this blood and the levels of various markers of inflammation were determined and included: IL-1β, IL-6, IL-8, TNF, PAI-1, and CRP. Other markers of inflammation such as CD36 was determined from mRNA isolated from the aortas of the rabbits to determine expression levels.

[3] = tested on: TNF; assay: TNF level in the plasma of hypercholesterolemic rabbits; type: in vivo, New Zealand albino rabbits; conditions: TA at 300 mg/kg feed, 2% cholesterol diet, 4 weeks
Source text: as §1

[4] = tested on: IL-1β; assay: IL-1β level in the plasma of hypercholesterolemic rabbits; type: in vivo, New Zealand albino rabbits; conditions: TA at 300 mg/kg feed, 2% cholesterol diet, 4 weeks
Source text: as §1

SMILES	T cell proliferation compared to vehicle [1]	plasma PAI-1 activity [2]	plasma TNF [3]	plasma IL-1β [4]
Cc1c(C)c2c(c(C)c1O)CC[C@@](C)(CCC[C@H](C)CCC[C@H](C)CCCC(C)C)O2 [alpha-T, alpha-tocopherol]	significant increase in proliferation			
CC(=O)Oc1c(C)c(C)c2c(c1C)CCC(C)(CCC[C@H](C)CCC[C@H](C)CCCC(C)C)O2 (stereo partly shown) [TA, tocopherol acetate]		modest decreases	modest decreases	modest decreases
